The subject of one test is Rh30-Myr-p110δ cells. As to the kind of experiment: Akt phosphorylation in isogenic Rh30-Myr-p110 cells (Western blot). It is filed as cell-based, human. To be noted: for EC50 / IC50: Homo sapiens; for EC50: Rh30-Myr-p110δ cells; for IC50: serum-free 12 h, compound 1 h, band intensity, mean of three experiments. An excerpt: To assess the selectivity of X-370 in the context of an isogenic cellular background, we generated a panel of Rh30 human rhabdomyosarcoma cell lines each of which stably expresses a single myristoylated (Myr)-epitope tagged p110 human class I PI3K catalytic subunit, termed as Rh30-Myr-p110α, Rh30-Myr-p110β, Rh30-Myr-p110γ or Rh30-Myr-p110δ. In these cells, endogenous PI3K is not activated under serum-free culture conditions, whereas the ectopically expressed p110 isoforms are membrane-anchored and constitutively active due to myristoylation at N-terminal. Utilizing this cell panel, isoform-specific PI3K activity can be determined for any given inhibitor[25]. These cells were treated with X-370 and phosphorylated Akt was detected as the readout of PI3K activity. X-370 inhibited phosphorylation of Akt at both Thr308 and Ser473 in a dose-dependent manner in four tested cell lines (Figure 2A). […] Similar property was also observed in CAL-101 (Figure S2).
Cell lysates were probed with indicated antibodies. The IC50 values were calculated based on relative band intensity measured with ImageQuant™ TL (GE Healthcare Life Sciences, Piscataway, NJ) (B). Data shown are mean values from three independent experiments. (C, D, E, F) X-370 blocked stimuli-triggered PI3Kδ activation. MEF cells and THP-1 were starved in serum-free medium for 12 h or 4 h respectively and X-370 were added for an additional 1 h treatment following stimulation of IGF-1 at 100 ng/ml for MEF cells (C), LPA at 10 μM for MEF cells (D), MCP-1 at 100ng/ml for THP-1 (E) and M-CSF at 50 ng/ml for THP-1 (F). Similar results were derived from 3 independent experiments. TEXT PRINTED IN THE PICTURE: (B) X-370: IC50 (μM) in Rh30-Myr-p110s, Akt pT308, PI3Kα: 0.68; IC50 (μM) in Rh30-Myr-p110s, Akt pT308, PI3Kβ: 0.4; IC50 (μM) in Rh30-Myr-p110s, Akt pT308, PI3Kγ: 0.46; IC50 (μM) in Rh30-Myr-p110s, Akt pT308, PI3Kδ: 0.032; IC50 (μM) in Rh30-Myr-p110s, Akt pS473, PI3Kα: 0.53; IC50 (μM) in Rh30-Myr-p110s, Akt pS473, PI3Kβ: 0.29; IC50 (μM) in Rh30-Myr-p110s, Akt pS473, PI3Kγ: 0.23; IC50 (μM) in Rh30-Myr-p110s, Akt pS473, PI3Kδ: 0.02 DOUBTS OF THE COPYIST ABOUT THIS PICTURE: Panel B prints no substance label in the table itself; the label X-370 is taken from the other panels of the same picture, where it is the only substance printed. […]
Cells were treated as indicated conditions and then subjected to lysate to perform standard Western blot as described previously1. Briefly, whole-cell lysates and SDS-loading buffer diluted cell fractions were analyzed on SDS-PAGE gels. Transfer to nitrocellulose membranes, nonfat milk blocking, probing with indicated primary antibodies and the corresponding HRP-conjugated second antibodies.
Chemiluminescence were performed and captured using ImageQuant LAS 4000 (GE healthcare Life Sciences, Piscataway, NJ, USA) and band intensity was measure both with ImageQuant™ TL (GE Healthcare Life Sciences) 2. […]
(also on this page, place not known: PI3Kδ -dependent MEK1/2 - B -cell previously 1. whole -cell SDS -loading SDS -PAGE HRP -conjugated (G E A B Val828 Trp760 Thr750 Met752 Tyr813 affinity pocket specificity pocket hinge Glu826 CAL-101 X-370) […]
(1 picture or pasted object on this page, not shown here) […]
in serum-free medium for 12 h and then incubated with serially diluted CAL -101 for an additional 1 h.
Cell lysates were probed with indicated antibodies. The IC50 values were calculated based on relative band intensity measured with ImageQuant™ TL (GE Healthcare Life Sciences, Piscataway, NJ). Data shown are mean values from three independent experiments.
Table S1: Inhibitory activity of X-370 against protein kinases […]
kinome at 10 μM. The relative kianse activity left in the presence of 10 μM were shown (Mi llipore […]
Kinase activity (% of control) Kinase activity (% of control) Kinase activity (% of control) […]
CDK1/cyclinB 97 Lck activated 89 Ret 125 […]
(In general: Immunoblotting shows a protein as a band on a membrane.)

Another test has as its system Raji-R cells. The test can be described thus: Proliferation of rituximab-resistant Raji-R cells (CCK-8). The class given is cell-based, human. How it is done:
Raji and SU-DHL-6 cells were treated with X-370 for 1 h (left panel) or treated with 0.5 μM X-370 for indicated times (middle panel). Right panel, Raji cells were incubated in fresh medium following treatment with 0.5 μM X-370 for 1 h. Indicated proteins were detected. (B) Raji-R (the rituximab-resistant derivatives of Raji cells) cells were resistant to X-370. The activity of X-370 on the proliferation of Raji parent and Raji-R cells was determined by CCK-8 assay as described in the methods section. (C) X-370 blocked phosphorylation of Akt but not Erk1/2 in Raji-R cells. Raji-R cells were treated with X-370 for 1h and indicated proteins were detected. Data shown are representative from three independent experiments.
Cell viability was assessed using Cell Counting Kit (CCK-8, Dojindo, Japan) following the manufacturer's protocol and OD values were measured with a Spectramax M5 plate reader (Molecular Devices, Sunnyvale, CA)[45].

Like-named read-outs stand apart in the source and are kept apart here.

For the molecule `O=C(N1CCCC1)N1CCC(n2cnc3c(-n4c(C(F)F)nc5ccccc54)nc(N4CCOCC4)nc32)CC1` [X-370], in the test with Rh30-Myr-p110δ cells (Akt pT308 and pS473), the “fold lower EC50 in Rh30-Myr-p110δ than in isogenic Rh30-Myr-p110α/β/γ cells” value is listed as “at least 10 fold”. Also, the EC50 came to 20 nM in the test with Rh30-Myr-p110δ cells (read-out: EC50, Akt phosphorylation (Akt pS473)) and 32 nM with Rh30-Myr-p110δ cells (read-out: EC50, Akt phosphorylation (Akt pT308)). The IC50 in the test on Rh30-Myr-p110δ cells (read-out: IC50 (μM) in Rh30-Myr-p110s, Akt pS473, PI3Kδ) was 0.02 µM; in the test on Rh30-Myr-p110δ cells (read-out: IC50 (μM) in Rh30-Myr-p110s, Akt pT308, PI3Kδ), 0.032 µM. Besides, the “sensitivity of proliferation compared to parental Raji cells” value in the test with Raji-R cells is given as “resistant”.

A word on the EC50: it is the concentration at which the effect is half-maximal. By IC50 is commonly meant the concentration that inhibits the measured activity by half.

Values taken from article PMC4279406, “Simultaneous targeting of PI3Kδ and a PI3Kδ-dependent MEK1/2-Erk1/2 pathway for therapy in pediatric B-cell acute lymphoblastic leukemia” (Oncotarget, 2014).
